Target: T1, SIRT1 (Homo sapiens, UniProt Q96EB6)
T1 sequence (Q96EB6 1-747): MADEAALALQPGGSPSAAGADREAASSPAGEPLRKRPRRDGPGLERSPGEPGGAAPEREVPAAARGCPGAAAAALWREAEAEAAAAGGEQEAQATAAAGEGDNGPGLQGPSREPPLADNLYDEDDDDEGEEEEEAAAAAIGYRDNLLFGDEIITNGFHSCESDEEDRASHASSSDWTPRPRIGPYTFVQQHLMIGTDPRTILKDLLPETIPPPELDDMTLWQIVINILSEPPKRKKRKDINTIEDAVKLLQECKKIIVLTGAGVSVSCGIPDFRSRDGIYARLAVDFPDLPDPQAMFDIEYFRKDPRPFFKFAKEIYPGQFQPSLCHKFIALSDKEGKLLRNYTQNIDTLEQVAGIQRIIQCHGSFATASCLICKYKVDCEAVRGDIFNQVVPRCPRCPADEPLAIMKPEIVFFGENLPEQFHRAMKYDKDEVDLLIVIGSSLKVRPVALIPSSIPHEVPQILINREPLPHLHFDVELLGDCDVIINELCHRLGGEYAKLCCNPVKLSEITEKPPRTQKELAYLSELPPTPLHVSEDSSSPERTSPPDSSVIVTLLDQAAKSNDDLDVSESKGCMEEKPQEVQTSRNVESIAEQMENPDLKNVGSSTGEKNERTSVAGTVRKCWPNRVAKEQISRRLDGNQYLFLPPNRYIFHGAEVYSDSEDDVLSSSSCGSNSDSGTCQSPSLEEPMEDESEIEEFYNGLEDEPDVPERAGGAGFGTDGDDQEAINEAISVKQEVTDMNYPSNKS
Assay: Mass spectrometry based assay to identify modulators of SIRT1 activity (deacetylation of p53-based acetylated peptide)
Type: biochemical
Conditions: 10 nM SIRT1, 0.5 μM peptide substrate, 120 μM βNAD+, 25 minutes at 25° C.; for EC1.5 μM: SIRT1 activation
Excerpt: A mass spectrometry based assay was used to identify modulators of SIRT1 activity. The mass spectrometry based assay utilizes a peptide having 20 amino acid residues as follows: Ac-EE-K(biotin)-GQSTSSHSK(Ac)NleSTEG-K(5TMR)-EE-NH2 (SEQ ID NO: 1) wherein K(Ac) is an acetylated lysine residue and Nle is a norleucine. The peptide is labeled with the fluorophore 5TMR (excitation 540 nm/emission 580 nm) at the C-terminus. The sequence of the peptide substrate is based on p53 with several modifications. In addition, the methionine residue naturally present in the sequence was replaced with the norleucine because the methionine may be susceptible to oxidation during synthesis and purification.
The mass spectrometry assay is conducted as follows: 0.5 μM peptide substrate and 120 μM βNAD^+ is incubated with 10 nM SIRT1 for 25 minutes at 25° C. in a reaction buffer (50 mM Tris-acetate pH 8, 137 mM NaCl, 2.7 mM KCl, 1 mM MgCl2, 5 mM DTT, 0.05% BSA). Test compounds may be added to the reaction as described above. […] After the 25 minute incubation with SIRT1, 10 μL of 10% formic acid is added to stop the reaction. Reactions are sealed and frozen for later mass spec analysis. Determination of the mass of the substrate peptide allows for precise determination of the degree of acetylation (i.e. starting material) as compared to deacetylated peptide (product).
A control for inhibition of sirtuin activity is conducted by adding 1 μL of 500 mM nicotinamide as a negative control at the start of the reaction (e.g., permits determination of maximum sirtuin inhibition). A control for activation of sirtuin activity is conducted using 10 nM of sirtuin protein, with 1 μL of DMSO in place of compound, to determine the amount of deacetylation of the substrate at a given timepoint within the linear range of the assay. This timepoint is the same as that used for test compounds and, within the linear range, the endpoint represents a change in velocity.
For the above assay, SIRT1 protein was expressed and purified as follows. […] The protein was expressed by induction with 1 mM IPTG as an N-terminal His-tag fusion protein at 18° C. overnight and harvested at 30,000×g. Cells were lysed with lysozyme in lysis buffer (50 mM Tris-HCl, 2 mM Tris[2-carboxyethyl]phosphine (TCEP), 10 μM ZnCl2, 200 mM NaCl) and further treated with sonication for 10 min for complete lysis. The protein was purified over a Ni-NTA column (Amersham) and fractions containing pure protein were pooled, concentrated and run over a sizing column (Sephadex S200 26/60 global). The peak containing soluble protein was collected and run on an Ion-exchange column (MonoQ). Gradient elution (200 mM-500 mM NaCl) yielded pure protein. This protein was concentrated and dialyzed against dialysis buffer (20 mM Tris-HCl, 2 mM TCEP) overnight. The protein was aliquoted and frozen at −80° C. until further use.
Sirtuin modulating compounds that activated SIRT1 were identified using the assay described above and are shown below in Tables 1 and 2. The EC1.5 values for the activating compounds are represented by A (EC1.5<1.0 μM), B (EC1.5 1-25 μM), C (EC1.5>25 μM). The percent maximum fold activation is represented by A (Fold activation>200%) or B (Fold Activation<200%).

Row | % Fold Act. (percent maximum fold activation) | EC1.5 μM | SMILES
1 | B (Fold Activation<200%) | B (EC1.5 1-25 μM) | Cc1cc(NC(=O)c2cccc3c(=O)n(C)c(-c4cccc(C(F)(F)F)c4)nc23)sn1 [Compound 296]
2 | B (Fold Activation<200%) | C (EC1.5>25 μM) | Cn1c(-c2ccccn2)nc2c(NC(=O)c3cnccn3)cccc2c1=O [Compound 277]
3 | A (Fold activation>200%) | B (EC1.5 1-25 μM) | Cn1c(-c2ccccc2C(F)F)nc2c(C(=O)Nc3ccccn3)cccc2c1=O [Compound 322]
4 | A (Fold activation>200%) | A (EC1.5<1.0 μM) | Cn1c(-c2cccc(C(F)(F)F)c2)nc2c(C(=O)Nc3cncc(OCC(O)CO)n3)cccc2c1=O (stereo not drawn) [Compound 354]
5 | A (Fold activation>200%) | B (EC1.5 1-25 μM) | O=C(Nc1cccc2c(=O)cc(-c3cccc(Cl)c3)[nH]c12)c1cscn1 [Compound 446]
6 | B (Fold Activation<200%) | B (EC1.5 1-25 μM) | Cn1c(-c2cccc(Cl)c2)nc2c(C(=O)Nc3cccnc3)cccc2c1=O [Compound 243]
7 | A (Fold activation>200%) | A (EC1.5<1.0 μM) | Cn1c(-c2ccccc2C(F)F)nc2c(NC(=O)c3cnccn3)cccc2c1=O [Compound 314]
8 | B (Fold Activation<200%) | B (EC1.5 1-25 μM) | CC(C)Cn1c(-c2cccc(C(F)(F)F)c2)nc2c(C(=O)Nc3ccccn3)cccc2c1=O [Compound 271]
9 | B (Fold Activation<200%) | C (EC1.5>25 μM) | Cn1c(-c2ccccc2N2CCOCC2)nc2c(C(=O)Nc3ccccn3)cccc2c1=O [Compound 216]
10 | A (Fold activation>200%) | B (EC1.5 1-25 μM) | Cc1nc(C)c(-c2nc3c(NC(=O)c4cnccn4)cccc3c(=O)n2C)s1 [Compound 287, N-(2-(2,4-dimethylthiazol-5-yl)-3-methyl-4-oxo-3,4-dihydroquinazolin-8-yl)pyrazine-2-carboxamide]
11 | B (Fold Activation<200%) | C (EC1.5>25 μM) | Cc1cc(NC(=O)c2cccc3c(=O)n(C)c(-c4cccc(C(F)(F)F)c4)nc23)n(C)n1 [Compound 295]
12 | A (Fold activation>200%) | B (EC1.5 1-25 μM) | Cn1c(-c2ccccc2C(F)(F)F)nc2c(C(=O)Nc3ccccn3)cccc2c1=O [Compound 212, 3-methyl-4-oxo-N-(pyridin-2-yl)-2-(2-(trifluoromethyl)phenyl)-3,4-dihydroquinazoline-8-carboxamide]
13 | A (Fold activation>200%) | A (EC1.5<1.0 μM) | Cn1c(-c2cccc(C(F)(F)F)c2)nc2c(C(=O)Nc3cccc(CN4CCOCC4)n3)cccc2c1=O [Compound 344]
14 | A (Fold activation>200%) | A (EC1.5<1.0 μM) | Cn1c(-c2cccc(C(F)(F)F)c2)nc2c(NC(=O)c3cccc(CN4CCOCC4)n3)cccc2c1=O [Compound 332]
15 | B (Fold Activation<200%) | C (EC1.5>25 μM) | Cn1c(-c2ccc(S(C)(=O)=O)cc2)nc2c(C(=O)Nc3ccccn3)cccc2c1=O [Compound 215]
16 | B (Fold Activation<200%) | C (EC1.5>25 μM) | CN1C(=O)CCC1C(=O)Nc1cccc2c(=O)n(C)c(-c3cccc(C(F)(F)F)c3)nc12 (stereo not drawn) [Compound 340]
17 | A (Fold activation>200%) | A (EC1.5<1.0 μM) | O=C(Nc1ccncn1)c1cccc2c(=O)cc(-c3cccc(C(F)(F)F)c3)[nH]c12 [Compound 415]
18 | A (Fold activation>200%) | B (EC1.5 1-25 μM) | O=C(Nc1cccnc1)c1cccc2c(=O)cc(-c3ccccc3C(F)F)[nH]c12 [Compound 438]
19 | A (Fold activation>200%) | A (EC1.5<1.0 μM) | Cc1cc(C)nc(NC(=O)c2cccc3c(=O)n(C)c(-c4cccc(C(F)(F)F)c4)nc23)c1 [Compound 306]
20 | B (Fold Activation<200%) | B (EC1.5 1-25 μM) | Cn1c(-c2ccc(C(F)(F)F)cc2)nc2c(NC(=O)c3cnccn3)cccc2c1=O [Compound 251]
21 | A (Fold activation>200%) | A (EC1.5<1.0 μM) | Cn1c(-c2cccc(C(F)(F)F)c2)nc2c(NC(=O)c3ncccn3)cccc2c1=O [Compound 249]
22 | A (Fold activation>200%) | A (EC1.5<1.0 μM) | Cn1c(-c2cccc(C(F)(F)F)c2)nc2c(C(=O)Nc3cccc(N4CCOCC4)n3)cccc2c1=O [Compound 293]
23 | A (Fold activation>200%) | B (EC1.5 1-25 μM) | Cn1cnc(NC(=O)c2cccc3c(=O)n(C)c(-c4cccc(C(F)(F)F)c4)nc23)n1 [Compound 305]
24 | A (Fold activation>200%) | A (EC1.5<1.0 μM) | Cn1c(-c2cccc(C(F)(F)F)c2)nc2c(NC(=O)c3cncc(N4CCOCC4)n3)cccc2c1=O [Compound 336]
25 | A (Fold activation>200%) | A (EC1.5<1.0 μM) | Cn1ccnc1C(=O)Nc1cccc2c(=O)cc(-c3cccc(C(F)(F)F)c3)[nH]c12 [Compound 420]
26 | A (Fold activation>200%) | A (EC1.5<1.0 μM) | Cn1c(-c2cccc(C(F)(F)F)c2)nc2c(C(=O)Nc3ccccn3)cccc2c1=O [Compound 206]
27 | A (Fold activation>200%) | A (EC1.5<1.0 μM) | O=C(Nc1cccc2c(=O)cc(-c3cccc(C(F)(F)F)c3)[nH]c12)c1cnccn1 [Compound 409, N-(4-oxo-2-(3-(trifluoromethyl)phenyl)-1,4-dihydroquinolin-8-yl)pyrazine-2-carboxamide]
28 | B (Fold Activation<200%) | B (EC1.5 1-25 μM) | Cn1c(-c2cccnc2)nc2c(NC(=O)c3cnccn3)cccc2c1=O [Compound 278]
29 | A (Fold activation>200%) | B (EC1.5 1-25 μM) | Cn1c(-c2cccc(C(F)(F)F)c2)nc2c(C(=O)Nc3nncs3)cccc2c1=O [Compound 299]
30 | A (Fold activation>200%) | B (EC1.5 1-25 μM) | O=C(Nc1nccs1)c1cccc2c(=O)cc(-c3ccccc3C(F)F)[nH]c12 [Compound 435]

Source: patent US9326986B2, “Quinazolinone, quinolone and related analogs as sirtuin modulators” (GLAXOSMITHKLINE LLC, priority 2008, dated 2016)
